Assay results taken from ChEMBL document CHEMBL5537110, “SIRT1-dependent mitochondrial biogenesis supports therapeutic effects of 4-butyl-polyhydroxybenzophenone compounds against NAFLD” (Eur J Med Chem, 2023).
Calls of active or inactive are those of the source. The calls are words filed in the database; no cut-off is given here.

Assays:
HepG2 [1] = test: Recovery of mitochondrial biogenesis in 40% FBS-induced steatosis human HepG2 cells model assessed as increase in PGC1alpha mRNA expression incubated for 24 hrs by qRT-PCR analysis; type: functional, cell-based; settings: dose 0.2-5 µM
Rattus norvegicus [2] = test: Hepatoprotective activity against high fat diet-fed NAFLD Sprague-Dawley rat model assessed as decrease in serum LDH level administered intragastrically via gavage for 4 weeks; type: functional, organism-based; settings: dose 12.3-61.4 mg/kg, route ig
Mitochondria = test: Inhibition of mitochondrial dysfunction in 40% FBS-induced steatosis human HepG2 cells model assessed as mitochondria with less swelling and organized mitochondrial cristae at 5 uM incubated for 24 hrs by transmission electron microscopy; type: functional
HepG2 [3] = test: Induction of mitochondrial biogenesis in human HepG2 cells assessed as NRF1 mRNA expression incubated for 24 hrs in presence of SIRT1 inhibitor, EX527 by qRT-PCR analysis; type: functional, cell-based
HepG2 [4] = test: Recovery of mitochondrial biogenesis in 40% FBS-induced steatosis human HepG2 cells model assessed as increase in NRF1 mRNA expression incubated for 24 hrs by qRT-PCR analysis; type: functional, cell-based; settings: dose 0.2-5 µM
Rattus norvegicus [5] = test: Hepatoprotective activity against high fat diet-fed NAFLD Sprague-Dawley rat model assessed as increase in serum SOD level administered intragastrically via gavage for 4 weeks; type: functional, organism-based; settings: dose 12.3-61.4 mg/kg, route ig
HepG2 [6] = test: Inhibition of liver injury in 40% FBS-induced steatosis human HepG2 cells model assessed as increase in liver protection index by measuring increase in GSH level at 0.2 to 5 uM incubated with compound for 24 hrs followed by replacement with steatosis inducing DMEM with 40% FBS medium; type: functional, cell-based; settings: dose 0.2-5 µM
HepG2 [7] = test: Recovery of mitochondrial biogenesis in 40% FBS-induced steatosis human HepG2 cells model assessed as increase in NRF1 protein expression incubated for 24 hrs by western blot analysis; type: functional, cell-based; settings: dose 0.2-5 µM
HepG2 [8] = test: Inhibition of lipid toxicity in 40% FBS-induced steatosis human HepG2 cells model assessed as decrease in triglyceride content at 0.2 to 5 uM incubated in steatosis inducing DMEM with 40% FBS medium for 24 hrs followed by compound treatment; type: functional, cell-based; settings: dose 0.2-5 µM
HepG2 [9] = test: Inhibition of liver injury in 40% FBS-induced steatosis human HepG2 cells model assessed as increase in liver protection index by measuring increase in ratio of GSH to GSSG at 0.2 to 5 uM incubated in steatosis inducing DMEM with 40% FBS medium for 24 hrs followed by compound treatment; type: functional, cell-based; settings: dose 0.2-5 µM
HepG2 [10] = test: Inhibition of lipid toxicity in 40% FBS-induced steatosis human HepG2 cells model assessed as decrease in lipid accumulation at 0.2 to 5 uM incubated in steatosis inducing DMEM with 40% FBS medium for 24 hrs followed by compound treatment by Oil red O staining based analysis; type: functional, cell-based; settings: dose 0.2-5 µM
HepG2 [11] = test: Inhibition of liver injury in 40% FBS-induced steatosis human HepG2 cells model assessed as decrease in ALT level at 0.2 to 5 uM incubated in steatosis inducing DMEM with 40% FBS medium for 24 hrs followed by compound treatment; type: functional, cell-based; settings: dose 0.2-5 µM
HepG2 [12] = test: Induction of mitochondrial biogenesis in human HepG2 cells assessed as mitochondrial COX1 mRNA expression incubated for 24 hrs in presence of SIRT1 inhibitor, EX527 by qRT-PCR analysis; type: functional, cell-based
HepG2 [13] = test: Inhibition of oxidative stress in 40% FBS-induced steatosis human HepG2 cells model assessed as reduction in mitochondrial ROS production incubated with compound for 24 hrs followed by replacement with steatosis inducing DMEM with 40% FBS medium by MitoSOX Red dye based fluorescence microscopy; type: functional, cell-based; settings: Mitochondria, dose 0.2-5 µM
HepG2 [14] = test: Inhibition of liver injury in 40% FBS-induced steatosis human HepG2 cells model assessed as decrease in GDH level at 0.2 to 5 uM incubated in steatosis inducing DMEM with 40% FBS medium for 24 hrs followed by compound treatment; type: functional, cell-based; settings: dose 0.2-5 µM
[15] = target: T1, NAD-dependent protein deacetylase sirtuin-1 (Homo sapiens) (UniProt Q96EB6); test: Binding affinity to SIRT1 in human HepG2 cells assessed as increase in protein abundance at 80 to 320 uM pretreated with compound for 30 mins followed by proteolysis for 15 mins by DARTS assay; type: cell-based; settings: filed as activator, dose 80-320 µM, time 45.0 min
T1 sequence (whole entry): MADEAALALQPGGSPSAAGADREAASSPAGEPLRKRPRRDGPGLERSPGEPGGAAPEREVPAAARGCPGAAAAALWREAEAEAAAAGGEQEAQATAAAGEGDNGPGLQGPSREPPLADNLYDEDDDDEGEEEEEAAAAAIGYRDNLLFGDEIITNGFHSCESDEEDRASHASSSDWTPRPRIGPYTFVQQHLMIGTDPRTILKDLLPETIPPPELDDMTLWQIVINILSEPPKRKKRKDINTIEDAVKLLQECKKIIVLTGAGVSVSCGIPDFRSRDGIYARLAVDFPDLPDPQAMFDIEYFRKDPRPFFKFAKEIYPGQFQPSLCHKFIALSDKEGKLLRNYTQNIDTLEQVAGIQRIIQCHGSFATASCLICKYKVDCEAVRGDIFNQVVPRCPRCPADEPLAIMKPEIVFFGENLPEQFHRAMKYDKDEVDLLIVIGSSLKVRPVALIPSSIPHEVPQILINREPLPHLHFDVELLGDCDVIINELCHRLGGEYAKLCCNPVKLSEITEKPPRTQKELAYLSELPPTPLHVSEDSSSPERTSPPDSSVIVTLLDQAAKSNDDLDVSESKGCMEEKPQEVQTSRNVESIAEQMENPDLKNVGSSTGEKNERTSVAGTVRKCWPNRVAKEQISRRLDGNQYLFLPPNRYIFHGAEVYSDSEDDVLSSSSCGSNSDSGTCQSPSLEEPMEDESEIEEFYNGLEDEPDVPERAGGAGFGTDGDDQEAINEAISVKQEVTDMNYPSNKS

HepG2 [16] = test: Inhibition of liver injury in 40% FBS-induced steatosis human HepG2 cells model assessed as decrease in AST level at 0.2 to 5 uM incubated in steatosis inducing DMEM with 40% FBS medium for 24 hrs followed by compound treatment; type: functional, cell-based; settings: dose 0.2-5 µM
Rattus norvegicus [17] = test: Hepatoprotective activity against high fat diet-fed NAFLD Sprague-Dawley rat model assessed as less ballooning degeneration and smaller fatty droplets in hepatocytes at 12.3 to 61.4 mg/kg, IG administered via gavage for 4 weeks by Hematoxylin-Eosin staining based analysis; type: functional, organism-based; settings: dose 12.3-61.4 mg/kg
HepG2 [18] = test: Recovery of mitochondrial biogenesis in 40% FBS-induced steatosis human HepG2 cells model assessed as increase in TFAM protein expression incubated for 24 hrs by western blot analysis; type: functional, cell-based; settings: dose 0.2-5 µM

Activity [15]: Active
SMILES: CC(C)(C)c1ccc(C(=O)c2ccc(O)c(O)c2)cc1
Activity (HepG2 [1]): Dose-Dependent Effect
Activity (Rattus norvegicus [2]): Active
inhibition (Mitochondria): Active
Activity (HepG2 [3]): inactive
Activity (HepG2 [4]): Dose-Dependent Effect
Activity (Rattus norvegicus [5]): Active
inhibition (HepG2 [6]): Active
Activity (HepG2 [7]): Dose-Dependent Effect
inhibition (HepG2 [8]): Active
inhibition (HepG2 [9]): Active
inhibition (HepG2 [10]): Active
inhibition (HepG2 [11]): Active
Activity (HepG2 [12]): inactive
inhibition (HepG2 [13]): Dose-Dependent Effect
inhibition (HepG2 [14]): Active
inhibition (HepG2 [16]): Active
Activity (Rattus norvegicus [17]): Active
Activity (HepG2 [18]): Dose-Dependent Effect
